According to patent publication US20180185476A1, “METHODS AND PHARMACEUTICAL COMPOSITIONS FOR INHIBITING LYMPHOCYTE PROLIFERATION IN A SUBJECT IN NEED THEREOF” (INSERM (Institut National de la Sante et de la Recherche …, priority 2013, published 2018):
Entries after “also recorded” stand apart in the source; their conditions may differ.

Columns and labels:
CTPS1-deficient cells = test: Proliferation and CD25 expression of CTPS1-deficient T cells after addition of nucleotides or nucleosides; type: cell-based, human; details: addition of nucleotides or nucleosides before stimulation
Source text: (§1) Informed consent was obtained from donors, patients and families of patients. The study and protocols conform to the 1975 declaration of Helsinki as well as to local legislation and ethical guidelines. Genomic DNA extracted from peripheral blood cells was used for whole exome sequencing (Illumina) and sequencing of CTPS1. PBMCs were Ficoll-purified and activated with phytohemagglutinin (PHA) for 3 days, and then cultured in RPMI medium supplemented with 5% type AB human serum and IL-2 (100 UI/ml). T-cell blasts were restimulated with various mitogens and analyzed for memory and activation markers, calcium flux, cytokine secretions, apoptosis and TCR-CD3 signaling cascade molecules by immunoblotting. CTPS1 protein was detected by immunoblotting with an antibody raised against residues in the middle of the protein (341 to 355) (#SAB111071, Sigma). […] Proliferation was assessed after 96 hours by monitoring the dilution of CellTrace violet dye labelling. Cell cycle was determined by measuring the incorporation of EdU into newly synthesized DNA during 40 hours. The division indexes were calculated with the Flowjo software (BD Biosciences). For gene silencing of CTPS1 by shRNA expression (Openbiosystems), cells were transduced at day 3 of PHA stimulation. For rescue experiments, CTPS1-deficient cells were transduced with a lentiviral vector (Invitrogen) containing the CTPS1 gene and proliferation was performed 5 days after transduction. In long-term expansions, cells were repeatedly stimulated with CD3/CD28-coated beads every 48 h and the transduced GFP^+ cells in the cultures were determined by every 24 h. The intracellular content of nucleotides was measured by liquid chromatography-mass spectrometry (UPLC-xevoTQS, Waters). P values were calculated by two-tailed Student's t-test using PRISM software (GraphPad).

control T-cells = test: T-cell proliferation in response to CD3 activation (CellTrace violet dye dilution); type: cell-based, human; details: nucleotide added to deazauridine-treated control T cells
Source text: as §1, with “For gene silencing of CTPS1 by shRNA expression (Openbiosystems), cells were transduced at day 3 of PHA stimulation. For rescue experiments, CTPS1-deficient cells were transduced with a lentiviral vector (Invitrogen) containing the CTPS1 gene and proliferation was performed 5 days after transduction.” left out, “The intracellular content of nucleotides was measured by liquid chromatography-mass spectrometry (UPLC-xevoTQS, Waters). P values were calculated by two-tailed Student's t-test using PRISM software (GraphPad).” left out

Structure (SMILES) | CD25 expression of CTPS1-deficient cells (CTPS1-deficient cells) | proliferation of CTPS1-deficient cells (CTPS1-deficient cells) | reversion of the inhibition of T-cell proliferation by deazauridine (control T-cells)
Nc1ccn([C@@H]2O[C@H](COP(=O)(O)OP(=O)(O)OP(=O)(O)O)[C@@H](O)[C@H]2O)c(=O)n1 [CTP, cytidine nucleotide triphosphate] | recovered to a normal level | recovered to a normal level; also recorded: restored to normal level | fully reverted
O=c1ccn([C@@H]2O[C@H](COP(=O)(O)OP(=O)(O)OP(=O)(O)O)[C@@H](O)[C@H]2O)c(=O)[nH]1 [UTP] |  |  | partially
Nc1ccn([C@@H]2O[C@H](CO)[C@@H](O)[C@H]2O)c(=O)n1 [cytidine] | recovered to a normal level | recovered to a normal level; also recorded: restored | 
